Columns and labels:
K562 = assay: Antiproliferative activity against human K562 cells assessed as reduction in cell viability by CCK8 assay; assay type: functional, cell-based
A549 [1] = assay: Antiproliferative activity against human A549 cells assessed as reduction in cell viability by CCK8 assay; assay type: functional, cell-based
Colon 26 = assay: Antiproliferative activity against mouse Colon 26 cells assessed as reduction in cell viability incubated for 72 hrs by CCK8 assay; assay type: functional, cell-based; conditions: Colon 26, 72 h
A549 [2] = assay: Antiproliferative activity against human A549 cells assessed as reduction in cell viability incubated for 72 hrs by CCK8 assay; assay type: functional, cell-based
[3] = Cytotoxicity against mouse RAW264.7 cells assessed as reduction in cell viability incubated for 72 hrs by CCK8 assay; assay type: toxicity, cell-based
Huh-7 = assay: Antiproliferative activity against human Huh-7 cells assessed as reduction in cell viability by CCK8 assay; assay type: functional, cell-based

- IC50 (K562): 6.87 µM
- IC50 (A549 [1]): 6.94 µM
- IC50 (A549 [2]; Homo sapiens, A549, 72 h): 36.9 µM
- IC50 (A549 [2]; a549): 60 µM
- IC50 (Huh-7): 2.59 µM
SMILES: COC(=O)c1cc2cc(OC)c(-c3c(OC)cc4cc(C(=O)OC)oc(=O)c4c3O)c(O)c2c(=O)o1
- IC50 (Colon 26): > 50 µM
- IC50 at 72 h [3]: > 50 µM
